Laboratory results reported in patent US12421210B2, “Fused bicyclic heterocycles as therapeutic agents” (NEW YORK UNIVERSITY, priority 2018, dated 2025).

Target: human NAMPT enzyme (His-hNAMPT) (Homo sapiens (Human), UniProt P43490)
Assay: NAMPT enzymatic inhibition assay (fluorescence, NADH product)
Format: biochemical
Conditions: [BPS]; read-out: NAMPT IC50 (μM) [BPS]

human NAMPT enzyme (His-hNAMPT), sequence (P43490 whole entry): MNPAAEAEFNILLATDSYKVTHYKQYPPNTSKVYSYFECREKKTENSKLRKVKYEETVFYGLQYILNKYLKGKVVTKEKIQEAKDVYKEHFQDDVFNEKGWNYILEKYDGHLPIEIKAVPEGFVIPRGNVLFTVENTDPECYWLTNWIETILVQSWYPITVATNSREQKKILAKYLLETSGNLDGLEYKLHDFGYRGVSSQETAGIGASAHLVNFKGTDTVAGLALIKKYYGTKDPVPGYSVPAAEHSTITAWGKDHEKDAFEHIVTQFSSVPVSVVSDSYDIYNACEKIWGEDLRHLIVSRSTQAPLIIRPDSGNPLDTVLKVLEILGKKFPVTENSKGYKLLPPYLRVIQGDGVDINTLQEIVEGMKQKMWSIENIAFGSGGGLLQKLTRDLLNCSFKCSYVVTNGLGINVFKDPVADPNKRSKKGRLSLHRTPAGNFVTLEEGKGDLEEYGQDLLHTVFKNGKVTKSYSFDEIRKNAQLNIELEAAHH

Row | Structure (SMILES) | IC50
1 | CC(C)(C)NC(=O)N1C[C@@H]2[C@@H](CCNC(=O)c3cc4ccncc4o3)[C@@H]2C1 [Example 56, N-(2-((1R,5S,6s)-3-(tert-butylcarbamoyl)-3-azabicyclo[3.1.0]hexan-6-yl)ethyl)furo[2,3-c]pyridine-2-carboxamide] | 0.01 to 0.49 µM
2 | O=C(O)c1cccc(C(=O)N2C[C@@H]3[C@@H](CCNC(=O)c4cc5ccncc5o4)[C@@H]3C2)c1 [Example 180, 3-((1R,5S,6s)-6-(2-(furo[2,3-c]pyridine-2-carboxamido)ethyl)-3-azabicyclo[3.1.0]hexane-3-carbonyl)benzoic acid] | 0.5 to 0.99 µM
3 | O=C(NCC[C@@H]1[C@H]2CN(S(=O)(=O)C3CCOCC3)C[C@@H]12)c1ccc2nccn2c1 [Example 68, N-(2-((1R,5S,6s)-3-((tetrahydro-2H-pyran-4-yl)sulfonyl)-3-azabicyclo[3.1.0]hexan-6-yl)ethyl)imidazo[1,2-a]pyridine-6-carboxamide] | 1 to 29 µM
4 | CC(C)(C)NC(=O)N1C[C@@H]2[C@@H](CCNC(=O)c3cnc4nccn4c3)[C@@H]2C1 [Example 77, N-(2-((1R,5S,6s)-3-(tert-butylcarbamoyl)-3-azabicyclo[3.1.0]hexan-6-yl)ethyl)imidazo[1,2-a]pyrimidine-6-carboxamide] | 0.01 to 0.49 µM
5 | CC(C)(C)CNC(=O)N1C[C@@H]2[C@@H](CCNC(=O)c3cc4ccncc4o3)[C@@H]2C1 [Example 69, N-(2-((1R,5S,6s)-3-(neopentylcarbamoyl)-3-azabicyclo[3.1.0]hexan-6-yl)ethyl)furo[2,3-c]pyridine-2-carboxamide] | 0.5 to 0.99 µM
6 | CC(C)(C)OC(=O)N1C[C@@H]2[C@@H](CCNC(=O)c3cc(-c4cccnc4)on3)[C@@H]2C1 [Example 12, (1R,5S,6s)-tert-butyl 6-(2-(5-(pyridin-3-yl)isoxazole-3-carboxamido)ethyl)-3-azabicyclo[3.1.0]hexane-3-carboxylate] | < 0.01 µM
7 | CC(C)(C)OC(=O)N1C[C@@H]2[C@@H](CCNC(=O)NCc3cccnc3)[C@@H]2C1 [Example 19, (1R,5S,6s)-tert-butyl 6-(2-(3-((pyridin-3-yl)methyl)ureido)ethyl)-3-azabicyclo[3.1.0]hexane-3-carboxylate] | 0.01 to 0.49 µM
8 | O=C(/C=C/c1cccnc1)NCC[C@@H]1[C@H]2CN(c3nc4ccccc4s3)C[C@@H]12 [Example 124, (E)-N-(2-((1R,5S,6s)-3-(benzo[d]thiazol-2-yl)-3-azabicyclo[3.1.0]hexan-6-yl)ethyl)-3-(pyridin-3-yl)acrylamide] | 0.01 to 0.49 µM
9 | Nc1ccc(/C=C/C(=O)NCC[C@@H]2[C@H]3CN(C(=O)c4cccc(OC(F)F)c4)C[C@@H]23)cn1 [Example 91, (E)-3-(6-aminopyridin-3-yl)-N-(2-((1R,5S,6s)-3-(3-(difluoromethoxy)benzoyl)-3-azabicyclo[3.1.0]hexan-6-yl)ethyl)acrylamide] | 0.01 to 0.49 µM
10 | Cc1nc(C)c(C(=O)N2C[C@@H]3[C@@H](CCNC(=O)c4cc5cnccc5[nH]4)[C@@H]3C2)o1 [Example 113, N-(2-((1R,5S,6s)-3-(2,4-dimethyloxazole-5-carbonyl)-3-azabicyclo[3.1.0]hexan-6-yl)ethyl)-1H-pyrrolo[3,2-c]pyridine-2-carboxamide] | 0.01 to 0.49 µM
11 | O=C(NCC[C@@H]1[C@H]2CN(C(=O)N3CCCC3)C[C@@H]12)c1cc2ccncc2o1 [Example 70, N-(2-((1R,5S,6s)-3-(pyrrolidine-1-carbonyl)-3-azabicyclo[3.1.0]hexan-6-yl)ethyl)furo[2,3-c]pyridine-2-carboxamide] | 0.01 to 0.49 µM
12 | Nc1ccc(/C=C/C(=O)NCC[C@@H]2[C@H]3CN(c4ccccc4)C(=O)[C@@H]23)cn1 (racemic) [Example 259, (E)-3-(6-aminopyridin-3-yl)-N-(2-((1S,5R,6R)-2-oxo-3-phenyl-3-azabicyclo[3.1.0]hexan-6-yl)ethyl)acrylamide and (E)-3-(6-aminopyridin-3-yl)-N-(2-((1R,5S,6S)-2-oxo-3-phenyl-3-azabicyclo[3.1.0]hexan-6-yl)ethyl)acrylamide] | 0.01 to 0.49 µM
13 | Nc1ccc(/C=C/C(=O)NCC[C@@H]2[C@H]3CN(C(=O)C4CCOCC4)C[C@@H]23)cn1 [Example 95, (E)-3-(6-aminopyridin-3-yl)-N-(2-((1R,5S,6s)-3-(tetrahydro-2H-pyran-4-carbonyl)-3-azabicyclo[3.1.0]hexan-6-yl)ethyl)acrylamide] | 0.01 to 0.49 µM
14 | O=C(NCC[C@@H]1[C@H]2CN(c3ncccn3)C[C@@H]12)c1ccc2nccn2c1 [Example 118, N-(2-((1R,5S,6s)-3-(pyrimidin-2-yl)-3-azabicyclo[3.1.0]hexan-6-yl)ethyl)imidazo[1,2-a]pyridine-6-carboxamide] | 0.01 to 0.49 µM
15 | O=C(NCC[C@@H]1[C@H]2CN(C(=O)c3ccc(F)cc3)C[C@@H]12)c1cc2ccncc2o1 [Example 97, N-(2-((1R,5S,6s)-3-(4-fluorobenzoyl)-3-azabicyclo[3.1.0]hexan-6-yl)ethyl)furo[2,3-c]pyridine-2-carboxamide] | 0.01 to 0.49 µM
16 | O=C(NCC[C@@H]1[C@H]2CN(C(=O)Nc3ccccc3)C[C@@H]12)c1cc2ccncc2o1 [Example 57, N-(2-((1R,5S,6s)-3-(phenylcarbamoyl)-3-azabicyclo[3.1.0]hexan-6-yl)ethyl)furo[2,3-c]pyridine-2-carboxamide] | 0.01 to 0.49 µM
17 | Nc1ccc(/C=C/C(=O)NCC[C@@H]2[C@H]3CN(C(=O)c4ccccc4)C[C@@H]23)cn1 [Example 25, (E)-3-(6-aminopyridin-3-yl)-N-(2-((1R,5S,6s)-3-benzoyl-3-azabicyclo[3.1.0]hexan-6-yl)ethyl)acrylamide] | 0.01 to 0.49 µM

Same assay, conditions: [HDB]; read-out: NAMPT IC50 (μM) [HDB]

Row | Structure (SMILES) | IC50
18 | NC(=O)c1cccc(N2C[C@@H]3[C@@H](CCNC(=O)/C=C/c4cccnc4)[C@@H]3C2)c1 [Example 183, 3-((1R,5S,6s)-6-(2-((E)-3-(pyridin-3-yl)acrylamido)ethyl)-3-azabicyclo[3.1.0]hexan-3-yl)benzamide] | 0.01 to 0.49 µM
19 | O=C(/C=C/c1cccnc1)NCC[C@@H]1[C@H]2CN(c3cccc(C(F)(F)F)c3)C[C@@H]12 [Example 138, (E)-3-(pyridin-3-yl)-N-(2-((1R,5S,6s)-3-(3-(trifluoromethyl)phenyl)-3-azabicyclo[3.1.0]hexan-6-yl)ethyl)acrylamide] | 0.01 to 0.49 µM
20 | NC(=O)c1cccc(C(=O)N2C[C@@H]3[C@@H](CCNC(=O)/C=C/c4cccnc4)[C@@H]3C2)c1 [Example 115, 3-((1R,5S,6s)-6-(2-((E)-3-(pyridin-3-yl)acrylamido)ethyl)-3-azabicyclo[3.1.0]hexane-3-carbonyl)benzamide] | < 0.01 µM
21 | Cc1nc2cccc(N3C[C@@H]4[C@@H](CCNC(=O)/C=C/c5cccnc5)[C@@H]4C3)c2o1 [Example 334, (E)-N-(2-((1R,5S,6s)-3-(2-methylbenzo[d]oxazol-7-yl)-3-azabicyclo[3.1.0]hexan-6-yl)ethyl)-3-(pyridin-3-yl)acrylamide] | < 0.01 µM
22 | CC(c1ncccn1)N1C[C@@H]2[C@@H](CCNC(=O)/C=C/c3cccnc3)[C@@H]2C1 (stereo partly drawn) [Example 315, (E)-3-(pyridin-3-yl)-N-(2-((1R,5S,6s)-3-(1-(pyrimidin-2-yl)ethyl)-3-azabicyclo[3.1.0]hexan-6-yl)ethyl)acrylamide] | 0.01 to 0.49 µM
23 | Nc1ncc(F)c(N2C[C@@H]3[C@@H](CCNC(=O)/C=C/c4cccnc4)[C@@H]3C2)n1 [Example 312, (E)-N-(2-((1R,5S,6s)-3-(2-amino-5-fluoropyrimidin-4-yl)-3-azabicyclo[3.1.0]hexan-6-yl)ethyl)-3-(pyridin-3-yl)acrylamide] | < 0.01 µM
24 | O=C(/C=C/c1cccnc1)NCC[C@@H]1[C@H]2CN(Cc3ccc(F)cc3F)C[C@@H]12 [Example 248, (E)-N-(2-((1R,5S,6s)-3-(2,4-difluorobenzyl)-3-azabicyclo[3.1.0]hexan-6-yl)ethyl)-3-(pyridin-3-yl)acrylamide] | 0.01 to 0.49 µM
25 | Cc1nc(C)c(C(=O)N2C[C@@H]3[C@@H](CCNC(=O)c4cc5ccncc5s4)[C@@H]3C2)o1 [Example 114, N-(2-((1R,5S,6s)-3-(2,4-dimethyloxazole-5-carbonyl)-3-azabicyclo[3.1.0]hexan-6-yl)ethyl)thieno[2,3-c]pyridine-2-carboxamide] | 0.01 to 0.49 µM
26 | CC(C)(C)Oc1cccc(N2C[C@@H]3[C@@H](CCNC(=O)/C=C/c4cccnc4)[C@@H]3C2)c1 [Example 158, (E)-N-(2-((1R,5S,6s)-3-(3-(tert-butoxy)phenyl)-3-azabicyclo[3.1.0]hexan-6-yl)ethyl)-3-(pyridin-3-yl)acrylamide] | < 0.01 µM
27 | O=C(/C=C/c1cccnc1)NCC[C@@H]1[C@H]2CN(c3ncc(F)cn3)C[C@@H]12 [Example 163, (E)-N-(2-((1R,5S,6s)-3-(5-fluoropyrimidin-2-yl)-3-azabicyclo[3.1.0]hexan-6-yl)ethyl)-3-(pyridin-3-yl)acrylamide] | 0.01 to 0.49 µM
28 | O=C(/C=C/c1cccnc1)NCC[C@@H]1[C@H]2CN(C(c3ccccc3)c3ccccc3)C[C@@H]12 [Example 276, (E)-N-(2-((1R,5S,6s)-3-benzhydryl-3-azabicyclo[3.1.0]hexan-6-yl)ethyl)-3-(pyridin-3-yl)acrylamide] | < 0.01 µM
29 | O=C(/C=C/c1cccnc1)NCC[C@@H]1[C@H]2CN(c3nc(N4CCNC(=O)C4)ncc3F)C[C@@H]12 [Example 333, (E)-N-(2-((1R,5S,6s)-3-(5-fluoro-2-(3-oxopiperazin-1-yl)pyrimidin-4-yl)-3-azabicyclo[3.1.0]hexan-6-yl)ethyl)-3-(pyridin-3-yl)acrylamide] | < 0.01 µM
30 | Nc1ccc(/C=C/C(=O)NCC[C@@H]2[C@H]3CN(c4nc(Cl)ncc4F)C[C@@H]23)cn1 [Example 206, (E)-3-(6-aminopyridin-3-yl)-N-(2-((1R,5S,6s)-3-(2-chloro-5-fluoropyrimidin-4-yl)-3-azabicyclo[3.1.0]hexan-6-yl)ethyl)acrylamide] | 0.01 to 0.49 µM
31 | O=C(/C=C/c1cccnc1)NCC[C@@H]1[C@H]2CN(c3cccnc3)C[C@@H]12 [Example 149, (E)-3-(pyridin-3-yl)-N-(2-((1R,5S,6s)-3-(pyridin-3-yl)-3-azabicyclo[3.1.0]hexan-6-yl)ethyl)acrylamide] | 0.01 to 0.49 µM
32 | Nc1ccc(/C=C/C(=O)NCC[C@@H]2[C@H]3CN(C(=O)c4ccccc4)C[C@@H]23)cn1 [Example 25, (E)-3-(6-aminopyridin-3-yl)-N-(2-((1R,5S,6s)-3-benzoyl-3-azabicyclo[3.1.0]hexan-6-yl)ethyl)acrylamide] | 0.01 to 0.49 µM
